Laboratory results reported in publication PMC4504870 (EJNMMI Research, 2015).
Where two headings read alike, the source gives them in different places. Marks after values point to notes of the source that are not given here. Each block holds one molecule with its values, some of them ahead of it.

Columns and labels:
[1] = cited from earlier work
[2] = cited from earlier work; remark: listed apart in the source
[3] = 90 min after injection, 12 MBq i.v., anesthetized; cited from earlier work
[4] = Radiation dose of i.v. ^68Ga-citrate estimated from ^67Ga-citrate data (literature); parameters: species or system human; conditions: converted from 0.052 rem/mCi assuming only gamma radiation
[5] = parameters: method as in PMID 4743583; conditions: i.v., estimated from ^67Ga-citrate data, uniform distribution of radioactivity assumed; cited from earlier work
[6] = ref Tang 2003, Pauleit 2003 [22], [23]

Molecule: N[C@@H](Cc1cc(O)c(O)cc1[18F])C(=O)O [6-^18 F-Fluoro-L-Dopa]
Human derived ED ([1]; ref Harvey 1985, Brown 1998 [20], [21]): 0.0199 mSv/MBq
Animal derived ED ([2]; calculated with biological risk weight factors of ICRP 30, ref Harvey 1985, Brown 1998 [20], [21]): 0.0539^b mSv/MBq

Molecule: [11CH3]Nc1ccc(-c2nc3ccc(O)cc3s2)cc1 [^11C-6-OH-BTA-1]
Human derived ED ([1]; ref Parsey 2005, Scheinin 2007 [17], [18]): 0.0045 mSv/MBq
Animal derived ED ([2]; males only, ref Parsey 2005, Scheinin 2007 [17], [18]): 0.0065^a mSv/MBq

Molecule: C[N+](C)([11CH3])CCO [^11C-Choline]
Human derived ED ([1]; ref Tolvanen 2010 [24]): 0.0044 mSv/MBq
Animal derived ED ([2]; ref Tolvanen 2010 [24]): 0.0028 mSv/MBq

Molecule: N[C@@H](Cc1ccc(OCC[18F])cc1)C(=O)O [^18 F-FET, O-(2-[^18F]fluoroethyl)-L-tyrosine]
Human derived ED [1, 6]: 0.0165 mSv/MBq
Animal derived ED [2, 6]: 0.0186 mSv/MBq

Molecule: [68Ga+3].[Cl-].[Cl-].[Cl-] [^68Ga-chloride]
SUV, blood [3]: 2.7 ± 0.3
SUV, liver [3]: 5.9 ± 3.3
SUV, lung [3]: 1.9 ± 0.8
SUV, muscle [3]: 0.2 ± 0.03
SUV, skin [3]: 0.5 ± 0.1

Estimated absorbed dose for total body, converted [4]: 0.014 mSv/MBq
Molecule: O=C([O-])CC(O)(CC(=O)[O-])C(=O)[O-].[68Ga+3] [^68Ga-citrate]
Estimated absorbed dose for total body [5]: 0.052 rads/mCi

Molecule: carbon-11-methoxyprogabidic acid [^11C-MPGA]
Human derived ED ([1]; ref Santens 1998 [19]): 0.0053 mSv/MBq
Animal derived ED ([2]; ref Santens 1998 [19]): 0.0048 mSv/MBq
